In brackets after ≈: the same amount, converted by molar mass.
Experiments:
KB = assay: Cytotoxicity against human KB cells; assay type: functional, cell-based
[1] = Inhibition of tubulin assembly into microtubules

Row | IC50 [1] [µM] | Structure (SMILES) | IC50 (KB) [µg/mL]
1 |  | COc1c(O)c(OC)c(C(=O)[C@@H]2CC=C(CCC=C(C)C)C[C@H]2c2ccccc2)c(O)c1OC [FISSISTIN] | 0.15 (≈ 0.321 µM)
2 |  | COc1c(O)c(OC)c(C(=O)[C@@H]2CC(CCC=C(C)C)=CC[C@H]2c2ccccc2)c(O)c1OC [ISOFISSISTIN] | 0.15 (≈ 0.321 µM)
3 | 300 | COc1c(O)c(OC)c(C(=O)/C=C/c2ccccc2)c(O)c1OC [PEDICIN] | 
4 | 4 | CC[C@]1(O)C[C@@H]2CN(CCc3c([nH]c4ccccc34)[C@@](C(=O)OC)(c3cc4c(cc3OC)N(C)[C@H]3[C@@](O)(C(=O)OC)[C@H](OC(C)=O)[C@]5(CC)C=CCN6CC[C@]43[C@@H]65)C2)C1 [VINBLASTINE] | 
